Laboratory results from ChEMBL document CHEMBL5518181, “Studies of antibacterial activity (in vitro and in vivo) and mode of action for des-acyl tridecaptins (DATs)” (Eur J Med Chem, 2024).
In brackets after ≈: the same amount, converted by molar mass. Activity calls are given as the source filed them. The rule behind the calls is not given here.

How the values were obtained:
Escherichia coli [1] = test: Antibacterial activity against wild-type Escherichia coli ATCC 25922 assessed as inhibition of bacterial growth incubated for 18 hrs; assay type: functional; conditions: read-out: MIC100
Klebsiella pneumoniae [2] = test: Antibacterial activity against wild-type Klebsiella pneumoniae ATCC 13883 assessed as inhibition of bacterial growth incubated for 18 hrs; assay type: functional; conditions: read-out: MIC100
[3] = Hemolytic activity in human red blood cells at 400 ug/ml incubated for 45 mins by spectrophotometric analysis relative to control; assay type: toxicity, cell-based, Erythrocyte; conditions: red blood cells (erythrocytes), at 400 µg/mL, read-out: Activity
[4] = Cytotoxicity against human HepG2 cells incubated for 40 hrs by celltiter-glo luminescent cell viability assay; assay type: toxicity, cell-based
Escherichia coli [5] = test: Antibacterial activity against wild-type Escherichia coli ATCC 25922 assessed as inhibition of bacterial growth by measuring fold increase in MIC incubated for 18 hrs in presence of 50% heat inactivated human serum relative to control; assay type: functional
Escherichia coli [6] = test: Antibacterial activity against wild-type Escherichia coli ATCC 25922 assessed as inhibition of bacterial growth incubated for 18 hrs in presence of 50% heat inactivated human serum; assay type: functional; conditions: read-out: MIC100
Escherichia coli [7] = test: Antibacterial activity against Escherichia coli ATCC 25922 harboring hldE knock-out assessed as inhibition of bacterial growth incubated for 18 hrs; assay type: functional; conditions: read-out: MIC100
Escherichia coli [8] = test: Antibacterial activity against Escherichia coli ATCC 25922 harboring tolC knock-out assessed as inhibition of bacterial growth incubated for 18 hrs; assay type: functional; conditions: read-out: MIC100
Klebsiella pneumoniae [9] = test: Antibacterial activity against wild-type Klebsiella pneumoniae ATCC 13883 assessed as inhibition of bacterial growth incubated for 18 hrs in presence of 50% heat inactivated human serum; assay type: functional; conditions: read-out: MIC100
Acinetobacter baumannii = test: Antibacterial activity against wild-type Acinetobacter baumannii ATCC 19606 assessed as inhibition of bacterial growth incubated for 20 hrs; assay type: functional; conditions: read-out: MIC100
Pseudomonas aeruginosa = test: Antibacterial activity against wild-type Pseudomonas aeruginosa PAO1 assessed as inhibition of bacterial growth incubated for 24 hrs; assay type: functional; conditions: read-out: MIC100
Staphylococcus aureus = test: Antibacterial activity against […] assessed as inhibition of bacterial growth incubated for 18 hrs; assay type: functional; conditions: ATCC 29213, read-out: MIC100
[10] = Hydrophobicity of compound assessed as %MeCN at peak elution by RP-HPLC analysis; assay type: physicochemical
[11] = Binding affinity to gram negative bacterial lipid II assessed as dissociation constant by ITC analysis; parameters: species or system Bacteria
Lipopolysaccharide (LPS) = test: Binding affinity to Escherichia coli O55:B5 LPS assessed as dissociation constant by ITC analysis; assay type: subcellular
Bacteria = test: Binding affinity to gram negative bacterial lipid II at 250 uM by ITC analysis
[12] = Drug uptake in Escherichia coli ATCC 25922 at 10 uM incubated for 10 mins by LC-MS/MS analysis; assay type: ADME
[13] = Drug localization in cytoplasm of Escherichia coli ATCC 25922 at 10 uM incubated for 10 mins by LC-MS/MS analysis; assay type: ADME, subcellular

Drug uptake [12]	Drug uptake [13]	SMILES	MIC (Escherichia coli [1])	MIC (Klebsiella pneumoniae [2])	hemolysis at 0.75 h, 400 ug/ml [3]	IC50 at 40 h [4]	fold change (FC) (Escherichia coli [5])	MIC (Escherichia coli [6])	MIC (Escherichia coli [7])	MIC (Escherichia coli [8])	MIC (Klebsiella pneumoniae [9])	MIC (Acinetobacter baumannii)	MIC (Pseudomonas aeruginosa)	MIC (Staphylococcus aureus)	MeCN percentage at peak elution [10]	Kd [11]	Kd (Lipopolysaccharide (LPS))	Activity (Bacteria)
		CC[C@H](C)[C@@H](NC(=O)[C@@H](NC(=O)[C@H](CCC(=O)O)NC(=O)[C@H](Cc1ccccc1)NC(=O)[C@@H](CCN)NC(=O)[C@H](CCN)NC(=O)[C@H](CO)NC(=O)[C@@H](Cc1c[nH]c2ccccc12)NC(=O)[C@@H](CO)NC(=O)CNC(=O)[C@@H](CCN)NC(=O)[C@H](NC(=O)[C@@H]1CCCN1)C(C)C)C(C)C)C(=O)N[C@@H](C)C(=O)O	4 µg/mL (≈ 2.68 µM)	4 µg/mL (≈ 2.68 µM)	5.5%	109 µg/mL (≈ 73.1 µM)	2	1 µg/mL	2 µg/mL (≈ 1.34 µM)	2 µg/mL (≈ 1.34 µM)	1 µg/mL	64 µg/mL (≈ 42.9 µM)	> 64 µg/mL	> 64 µg/mL	41.9%			
		CC[C@H](C)[C@@H](NC(=O)[C@@H](NC(=O)[C@H](CCC(=O)O)NC(=O)[C@H](Cc1ccccc1)NC(=O)[C@@H](CCN)NC(=O)[C@H](CCN)NC(=O)[C@H](CO)NC(=O)[C@@H](Cc1c[nH]c2ccccc12)NC(=O)[C@@H](CO)NC(=O)CNC(=O)[C@@H](CCN)NC(=O)[C@H](NC(=O)[C@H](C)N)C(C)C)C(C)(C)C)C(=O)N[C@@H](C)C(N)=O	16 µg/mL (≈ 10.8 µM)	8 µg/mL (≈ 5.41 µM)	6%	> 170 µg/mL	8	2 µg/mL	> 64 µg/mL	0.5 µg/mL (≈ 0.338 µM)	0.125 µg/mL	64 µg/mL (≈ 43.3 µM)	> 64 µg/mL	> 64 µg/mL	41.8%	2.15 µM		
		CC[C@H](C)[C@@H](NC(=O)[C@@H](NC(=O)[C@H](CCC(=O)O)NC(=O)[C@H](Cc1ccccc1)NC(=O)[C@@H](CCN)NC(=O)[C@H](CCN)NC(=O)[C@H](CO)NC(=O)[C@@H](Cc1c[nH]c2ccccc12)NC(=O)[C@@H](CO)NC(=O)CNC(=O)[C@@H](CCN)NC(=O)[C@H](N)C(C)C)C(C)(C)C)C(=O)N[C@@H](C)C(N)=O	4 µg/mL (≈ 2.84 µM)	2 µg/mL (≈ 1.42 µM)	2.6%	93 µg/mL (≈ 66.1 µM)	2	2 µg/mL	0.125 µg/mL (≈ 0.0888 µM)	0.25 µg/mL (≈ 0.178 µM)	4 µg/mL	> 64 µg/mL	16 µg/mL (≈ 11.4 µM)	> 64 µg/mL	41%		16.7 µM	inactive
Active	Active	CC[C@H](C)[C@@H](NC(=O)[C@@H](NC(=O)[C@H](CCC(=O)O)NC(=O)[C@H](Cc1ccccc1)NC(=O)[C@@H](CCN)NC(=O)[C@H](CCN)NC(=O)[C@H](CO)NC(=O)[C@@H](Cc1c[nH]c2ccccc12)NC(=O)[C@@H](CO)NC(=O)CNC(=O)[C@@H](CCN)NC(=O)[C@H](N)C(C)C)C(C)(C)C)C(=O)N[C@@H](C)C(=O)O	16 µg/mL (≈ 11.4 µM)	4 µg/mL (≈ 2.84 µM)	86.3%													
		CC[C@H](C)[C@@H](NC(=O)[C@@H](NC(=O)[C@H](CCC(=O)O)NC(=O)[C@H](Cc1c[nH]c2ccccc12)NC(=O)[C@@H](CCN)NC(=O)[C@H](CCN)NC(=O)[C@H](CO)NC(=O)[C@@H](Cc1c[nH]c2ccccc12)NC(=O)[C@@H](CO)NC(=O)CNC(=O)[C@@H](CCN)NC(=O)[C@H](NC(=O)[C@H](C)N)C(C)C)C(C)C)C(=O)N[C@@H](C)C(=O)O	1 µg/mL (≈ 0.665 µM)	1 µg/mL (≈ 0.665 µM)	41.7%	151 µg/mL (≈ 100 µM)										5.2 µM	14.8 µM	
